US7524853B2 (Solvay Pharmaceuticals B.V., priority 2003, dated 2009)

What was measured:
Type in all cases: cell-based
[1] = molecular target: T1, 17β-hydroxysteroid dehydrogenase type 1 (17β-HSD type 1) (Homo sapiens, UniProt P14061); experiment: Inhibition of 17β-HSD type 1 in MCF-7 cells stably expressing the isoenzyme (tritium labeled estrone conversion, HPLC); settings: MCF-7 cells expressing 17β-HSD type 1, 2 nM tritium labeled estrone; for inhibition at 1 µM / inhibition at 10 µM: MCF7; for inhibition at 1 µM / % Inhibition HSD1 1 μM: 1 μM test compound; for inhibition at 1 µM: read-out: % Inhibition HSD1 1 μM; for inhibition at 10 µM / % Inhibition HSD1 10 μM: 10 μM test compound; for inhibition at 10 µM: read-out: % Inhibition HSD1 10 μM
T1 construct: expressed in transfected cells; host or cells: MCF-7
T1 sequence (P14061 1-328): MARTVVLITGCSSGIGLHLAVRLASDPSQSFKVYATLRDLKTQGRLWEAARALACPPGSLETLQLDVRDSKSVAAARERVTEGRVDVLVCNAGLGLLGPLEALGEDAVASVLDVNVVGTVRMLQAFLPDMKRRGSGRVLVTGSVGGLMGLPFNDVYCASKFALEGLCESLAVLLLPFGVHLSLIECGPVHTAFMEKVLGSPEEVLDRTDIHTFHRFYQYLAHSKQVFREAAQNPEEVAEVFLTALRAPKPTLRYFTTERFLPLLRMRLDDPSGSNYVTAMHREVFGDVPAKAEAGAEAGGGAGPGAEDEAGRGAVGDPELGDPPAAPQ
Method in brief: (§1)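 Percent inhibition derived by comparing substrate conversion with versus without compound, quantified by HPLC–radioflow detection after TCA stop. Cells were stably transfected MCF-7 expressing type 1, 2 or 3 enzyme, given 2 nM labeled estrone, estradiol or androstenedione respectively; compounds tested at two concentrations.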

[2] = molecular target: T2, 17β-hydroxysteroid dehydrogenase type 3 (17β-HSD type 3) (Homo sapiens, UniProt P37058); experiment: Inhibition of 17β-HSD type 3 in MCF-7 cells stably expressing the isoenzyme (tritium labeled androstenedione conversion, HPLC); settings: MCF-7 cells expressing 17β-HSD type 3, 2 nM tritium labeled androstenedione; for inhibition at 1 µM / inhibition at 10 µM: MCF7; for inhibition at 1 µM / % Inhibition HSD3 1 μM: 1 μM test compound; for inhibition at 1 µM: read-out: % Inhibition HSD3 1 μM; for inhibition at 10 µM / % Inhibition HSD3 10 μM: 10 μM test compound; for inhibition at 10 µM: read-out: % Inhibition HSD3 10 μM
T2 construct: expressed in transfected cells; host or cells: MCF-7
T2 sequence (P37058 1-310): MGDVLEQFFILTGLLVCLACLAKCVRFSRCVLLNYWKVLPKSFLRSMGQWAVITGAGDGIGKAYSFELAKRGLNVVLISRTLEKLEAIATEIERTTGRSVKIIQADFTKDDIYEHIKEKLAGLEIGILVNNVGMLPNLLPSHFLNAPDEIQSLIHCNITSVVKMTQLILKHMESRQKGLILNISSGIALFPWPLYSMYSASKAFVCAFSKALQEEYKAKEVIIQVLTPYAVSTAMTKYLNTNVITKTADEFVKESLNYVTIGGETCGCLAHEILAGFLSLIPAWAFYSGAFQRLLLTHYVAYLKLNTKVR
Method in brief: as §1

[3] = molecular target: T3, 17β-hydroxysteroid dehydrogenase type 2 (17β-HSD type 2) (Homo sapiens, UniProt P37059); experiment: Inhibition of 17β-HSD type 2 in MCF-7 cells stably expressing the isoenzyme (tritium labeled estradiol conversion, HPLC); settings: MCF-7 cells expressing 17β-HSD type 2, 2 nM tritium labeled estradiol; for inhibition at 1 µM / inhibition at 10 µM: MCF7; for inhibition at 1 µM / % Inhibition HSD2 1 μM: 1 μM test compound; for inhibition at 1 µM: read-out: % Inhibition HSD2 1 μM; for inhibition at 10 µM / % Inhibition HSD2 10 μM: 10 μM test compound; for inhibition at 10 µM: read-out: % Inhibition HSD2 10 μM
T3 construct: expressed in transfected cells; host or cells: MCF-7
T3 sequence (P37059 1-387): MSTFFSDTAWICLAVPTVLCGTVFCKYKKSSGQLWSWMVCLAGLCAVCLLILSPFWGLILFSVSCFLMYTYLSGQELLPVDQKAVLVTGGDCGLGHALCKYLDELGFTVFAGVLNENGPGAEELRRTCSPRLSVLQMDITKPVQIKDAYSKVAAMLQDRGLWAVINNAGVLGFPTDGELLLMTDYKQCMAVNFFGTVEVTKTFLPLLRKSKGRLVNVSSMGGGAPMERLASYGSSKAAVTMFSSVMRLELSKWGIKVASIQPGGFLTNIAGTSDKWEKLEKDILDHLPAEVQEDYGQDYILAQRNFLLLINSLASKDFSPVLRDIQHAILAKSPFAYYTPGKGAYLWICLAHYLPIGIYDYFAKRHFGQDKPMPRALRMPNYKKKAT
Method in brief: as §1

Row | inhibition at 1 µM [1] | inhibition at 10 µM [1] | inhibition at 1 µM [2] | inhibition at 10 µM [2] | inhibition at 1 µM [3] | inhibition at 10 µM [3] | % Inhibition HSD1 1 μM [1] | % Inhibition HSD1 10 μM [1] | % Inhibition HSD3 1 μM [2] | % Inhibition HSD3 10 μM [2] | % Inhibition HSD2 1 μM [3] | % Inhibition HSD2 10 μM [3] | SMILES
1 | 31% | 51.5% | 10.8% | 24.4% | 23.6% | 24.4% |  |  |  |  |  |  | COc1cc(-c2nc3sc4c(OC(C)=O)cccc4c3c(=O)n2CC(C)C)c(Br)c(OC)c1OC [No. 118, Acetic acid 2-(2-bromo-3,4,5-trimethoxyphenyl)-3-isobutyl-4-oxo-3,4-dihydro-benzo[4,5]-thieno[2,3-d]pyrimidin-8-yl ester]
2 | 31.9% | 29.9% | 2.7% | 1.4% | -2.6% | -8.9% |  |  |  |  |  |  | COc1cc(-c2nc3sc4c(Sc5ccccc5)c(C=O)ccc4c3c(=O)n2Cc2ccccc2)cc(OC)c1OC [No. 9, 3-Benzyl-4-oxo-8-phenylsulfanyl-2-(3,4,5-trimethoxyphenyl)-3,4-dihydro-benzo[4,5]thieno[2,3-d]pyrimidine-7-carbaldehyde]
3 | 18% | 28.6% | 9.8% | 35% | 12.7% | 21% |  |  |  |  |  |  | CCCCn1c(-c2cc(OC)c(OC)c(OC)c2)nc2sc3c(c2c1=O)CC(C)CC3=O (stereo not drawn) [No. 692, 3-Butyl-6-methyl-2-(3,4,5-trimethoxyphenyl)-6,7-dihydro-3H,5H-benzo[4,5]thieno[2,3-d]pyrimidin-4,8-dione]
4 |  |  |  |  |  |  | 18.0% | 24.6% | 17.7% | 70.1% | 16.0% | 40.2% | CC(C)=Cc1nc2sc3c(O)cccc3c2c(=O)n1CCc1cccs1 [No. 648]
5 |  |  |  |  |  |  | 14.4% | 35.4% | 22.9% | 76.1% | 16.3% | 33.9% | O=c1c2c(nc(CCc3ccccc3)n1Cc1ccccc1)sc1c(O)cccc12 [No. 659]
6 | 46.8% | 85.3% | 34.7% | 78.6% | 23.9% | 53.1% |  |  |  |  |  |  | CCC(C)Cn1c(-c2cc(OC)c(OC)c(OC)c2)nc2sc3c(O)cccc3c2c1=O (stereo not drawn) [No. 129, 8-Hydroxy-3-(2-methylbutyl)-2-(3,4,5-trimethoxyphenyl)-3H-benzo[4,5]thieno[2,3-d]pyrimidin-4-one]
7 | 18.1% | 48.3% | 43.5% | 100% | -5.4% | 20.9% |  |  |  |  |  |  | COc1ccc(-c2nc3sc4cc(C=O)ccc4c3c(=O)n2Cc2ccccc2)cc1 [No. 17, 3-Benzyl-2-(p-methoxyphenyl)-4-oxo-3,4-dihydro-benzo[4,5]thieno[2,3-d]pyrimidine-7-carbaldehyde]
8 | 17% | 59.6% | 9.9% | 62.4% | 6.9% | 31.2% |  |  |  |  |  |  | CCCc1nc2sc3c(c2c(=O)n1Cc1ccccc1OC)CCCC3=O [No. 95, 3-(2-Methoxybenzyl)-2-propyl-6,7-dihydro-3H,5H-benzo[4,5]thieno[2,3-d]pyrimidine-4,8-dione]
9 | 23.8% | 56.9% | 7.3% | 41.5% | 24.7% | 48.7% |  |  |  |  |  |  | COCCn1c(-c2cc(OC)c(OC)c(OC)c2Br)nc2sc3c(c2c1=O)CCC(Br)C3=O (stereo not drawn) [No. 111, 7-Bromo-2-(2-bromo-3,4,5-trimethoxyphenyl)-3-(2-methoxyethyl)-6,7-dihydro-3H,5H-benzo[4,5]thieno[2,3-d]pyrimidine-4,8-dione]
10 | 28.2% | 69.1% | 16.6% | 63.3% | 46.6% | 82.8% |  |  |  |  |  |  | CCCc1nc2sc3c(O)cccc3c2c(=O)n1Cc1cc(Br)ccc1OC [No. 98]
11 |  |  |  |  |  |  | 4.9% | 18.9% | 11.6% | 62.5% | 15.4% | 50.8% | CCCCC(CC)c1nc2sc3c(O)cccc3c2c(=O)n1CCCC (stereo not drawn) [No. 635]
12 | 18.2% | 58.4% | 18.7% | 37.7% | 6.8% | 24.3% |  |  |  |  |  |  | COc1cc(-c2nc3sc4c(O)cccc4c3c(=O)n2CC2CCCO2)c(Br)c(OC)c1OC (stereo not drawn) [No. 133, 2-(2-Bromo-3,4,5-trimethoxyphenyl)-8-hydroxy-3-(tetrahydrofuran-2-ylmethyl)-3H-benzo[4,5]thieno[2,3-d]pyrimidin-4-one]
13 | -3.3% | 5.5% | 1.7% | 7.3% | 8.3% | 5.6% |  |  |  |  |  |  | COc1cc(-c2nc3sc4c(c3c(=O)n2Cc2ccccc2)CC(C)CC4)cc(OC)c1OC (stereo not drawn) [No. 687, 3-Benzyl-6-methyl-2-(3,4,5-trimethoxyphenyl)-5,6,7,8-tetrahydro-3H-benzo[4,5]thieno[2,3-d]pyrimidin-4-one]
14 | 40.1% | 74.2% | 12.5% | 52.1% | 4.5% | 17.7% |  |  |  |  |  |  | CCC(C)Cn1c(-c2cc(OC)c(OC)c(OC)c2Cl)nc2sc3c(O)cccc3c2c1=O (stereo not drawn) [No. 143, 2-(2-Chloro-3,4,5-trimethoxyphenyl)-8-hydroxy-3-(2-methylbutyl)-3H-benzo[4,5]thieno[2,3-d]pyrimidin-4-one]
15 | 34.4% | 65.8% | 32.9% | 75.8% | 32.4% | 39% |  |  |  |  |  |  | COc1cc(-c2nc3sc4c(OC(C)=O)cccc4c3c(=O)n2Cc2ccccc2)c(Br)c(OC)c1OC [No. 50, Acetic acid 3-benzyl-2-(2-bromo-3,4,5-trimethoxyphenyl)-4-oxo-3,4-dihydro-benzo[4,5]thieno[2,3-d]pyrimidin-8-yl ester]
16 | 15.6% | 25% | 3.8% | 16.2% | 13.8% | 5.3% |  |  |  |  |  |  | CCOC(=O)c1nc2sc3c(c2c(=O)n1-c1ccccc1)CCCC3 [No. 40, 4-Oxo-3-phenyl-3,4,5,6,7,8-hexahydro-benzo[4,5]thieno[2,3-d]pyrimidine-2-carboxylic acid ethyl ester]
17 | 16.1% | 63.2% | 39.7% | 52.2% | 31.9% | 59% |  |  |  |  |  |  | COc1cc(-c2nc3sc4c(c3c(=O)n2Cc2ccccc2)CCC(Br)C4=O)c(Br)c(OC)c1OC (stereo not drawn) [No. 47, 3-benzyl-7-bromo-2-(2-bromo-3,4,5-trimethoxyphenyl)-6,7-dihydro-3H,5H-benzo[4,5]thieno[2,3-d]pyrimidine-4,8-dione]
